Test [1] is described as follows: Inhibition of Aspergillus niger amyloglucosidase.
Test [2] relates to Escherichia coli. The test is described as follows: Inhibition of Escherichia coli beta-glucuronidase at 1000 uM.
Test [3] is filed under the species Rattus norvegicus. Nature of the test: Inhibition of rat intestinal beta-galactosidase at 1000 uM.
The nature of test [4]: Inhibition of Penicillium decumbens alpha-L-rhamnosidase.
Test [5] can be described thus: Inhibition of rhizopus amyloglucosidase.
The target of test [6] is T1, Beta-galactosidase (Bos taurus) (UniProt Q58D55).
T1 sequence (whole entry): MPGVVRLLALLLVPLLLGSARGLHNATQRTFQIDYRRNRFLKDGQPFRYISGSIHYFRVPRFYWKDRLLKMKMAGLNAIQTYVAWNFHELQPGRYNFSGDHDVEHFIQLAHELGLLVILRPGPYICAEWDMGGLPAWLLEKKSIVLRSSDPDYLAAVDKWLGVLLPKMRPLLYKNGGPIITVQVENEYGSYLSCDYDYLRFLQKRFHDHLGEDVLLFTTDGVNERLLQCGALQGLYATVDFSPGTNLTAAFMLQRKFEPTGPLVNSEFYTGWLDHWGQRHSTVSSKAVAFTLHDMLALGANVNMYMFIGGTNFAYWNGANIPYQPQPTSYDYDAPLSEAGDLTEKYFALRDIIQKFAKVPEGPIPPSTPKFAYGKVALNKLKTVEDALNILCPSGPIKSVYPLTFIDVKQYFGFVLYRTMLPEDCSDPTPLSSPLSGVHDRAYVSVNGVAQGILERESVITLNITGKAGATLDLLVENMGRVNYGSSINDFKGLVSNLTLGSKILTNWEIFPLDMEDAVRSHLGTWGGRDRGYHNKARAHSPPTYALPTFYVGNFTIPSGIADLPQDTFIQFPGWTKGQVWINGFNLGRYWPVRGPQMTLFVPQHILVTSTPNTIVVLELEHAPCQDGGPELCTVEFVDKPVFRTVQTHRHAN
Nature of the test: Inhibition of bovine liver beta-galactosidase at 1000 uM.

The subject of test [7] is Aspergillus niger. The test is described as follows: Inhibition of Aspergillus niger beta-glucosidase at 1000 uM.
Test [8] is filed under the species Rattus norvegicus. Nature of the test: Inhibition of rat intestinal alpha-glucosidase at 1000 uM.
In test [9] the target is T2, Glucosylceramidase (Bos taurus) (UniProt Q2KHZ8).
T2 sequence (whole entry): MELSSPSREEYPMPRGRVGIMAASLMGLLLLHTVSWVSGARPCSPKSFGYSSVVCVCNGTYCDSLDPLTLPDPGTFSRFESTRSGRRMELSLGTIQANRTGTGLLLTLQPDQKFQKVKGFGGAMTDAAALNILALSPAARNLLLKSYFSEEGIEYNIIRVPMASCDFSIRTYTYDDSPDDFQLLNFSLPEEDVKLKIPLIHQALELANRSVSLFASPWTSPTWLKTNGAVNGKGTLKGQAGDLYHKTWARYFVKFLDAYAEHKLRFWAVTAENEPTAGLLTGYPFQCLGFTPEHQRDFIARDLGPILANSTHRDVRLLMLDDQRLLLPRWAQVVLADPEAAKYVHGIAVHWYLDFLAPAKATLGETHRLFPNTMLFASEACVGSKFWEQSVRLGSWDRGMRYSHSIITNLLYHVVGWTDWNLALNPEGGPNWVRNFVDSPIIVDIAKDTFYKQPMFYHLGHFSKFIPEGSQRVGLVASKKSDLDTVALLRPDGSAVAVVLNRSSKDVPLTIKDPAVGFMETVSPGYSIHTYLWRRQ
Nature of the test: Inhibition of bovine liver beta-glucosidase at 1000 uM.

For test [10], the species on record is Sus scrofa. Nature of the test: Inhibition of porcine kidney alpha,alpha-trehalase at 1000 uM.
Test [11] relates to Saccharomyces cerevisiae. Nature of the test: Inhibition of yeast alpha-glucosidase at 1000 uM.
Test [12] addresses T3, Tissue alpha-L-fucosidase (Bos taurus) (UniProt Q2KIM0).
T3 sequence (whole entry): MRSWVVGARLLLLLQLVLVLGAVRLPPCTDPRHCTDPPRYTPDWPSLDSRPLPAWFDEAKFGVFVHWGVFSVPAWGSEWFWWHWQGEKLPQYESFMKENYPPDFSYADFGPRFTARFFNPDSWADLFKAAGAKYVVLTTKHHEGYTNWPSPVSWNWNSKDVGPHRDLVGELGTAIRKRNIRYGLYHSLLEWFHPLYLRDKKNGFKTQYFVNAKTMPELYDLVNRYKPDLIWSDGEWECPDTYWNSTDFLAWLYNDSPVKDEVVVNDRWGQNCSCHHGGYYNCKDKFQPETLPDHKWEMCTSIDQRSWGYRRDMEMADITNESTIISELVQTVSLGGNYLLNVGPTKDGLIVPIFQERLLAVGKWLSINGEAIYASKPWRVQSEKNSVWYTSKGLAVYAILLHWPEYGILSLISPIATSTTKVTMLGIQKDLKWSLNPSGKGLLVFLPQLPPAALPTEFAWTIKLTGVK
The test is described as follows: Inhibition of bovine alpha-L-fucosidase at 1000 uM.

Test [13] deals with Oryza sativa. The test is described as follows: Inhibition of rice alpha-glucosidase at 1000 uM.
The target of test [14] is T4, Beta-glucuronidase (Bos taurus) (UniProt A3KMY8).
T4 sequence (whole entry): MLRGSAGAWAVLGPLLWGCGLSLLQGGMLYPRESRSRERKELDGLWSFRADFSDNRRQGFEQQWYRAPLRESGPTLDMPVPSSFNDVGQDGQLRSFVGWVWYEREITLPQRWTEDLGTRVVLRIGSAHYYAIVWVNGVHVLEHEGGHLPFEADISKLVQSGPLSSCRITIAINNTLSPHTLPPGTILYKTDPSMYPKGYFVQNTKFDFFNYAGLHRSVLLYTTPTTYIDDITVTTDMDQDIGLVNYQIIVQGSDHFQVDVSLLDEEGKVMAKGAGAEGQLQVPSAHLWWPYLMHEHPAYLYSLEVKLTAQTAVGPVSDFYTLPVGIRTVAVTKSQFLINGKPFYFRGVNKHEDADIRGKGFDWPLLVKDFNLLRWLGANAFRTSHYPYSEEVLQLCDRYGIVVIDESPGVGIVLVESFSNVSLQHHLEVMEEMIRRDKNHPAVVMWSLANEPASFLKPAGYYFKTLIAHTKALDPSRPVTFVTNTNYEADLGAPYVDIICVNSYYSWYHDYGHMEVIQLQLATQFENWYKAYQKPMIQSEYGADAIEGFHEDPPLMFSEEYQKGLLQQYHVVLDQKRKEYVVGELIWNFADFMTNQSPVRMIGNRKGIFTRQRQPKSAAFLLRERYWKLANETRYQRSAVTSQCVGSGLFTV
Nature of the test: Inhibition of bovine liver beta-glucuronidase at 1000 uM.

Test [15] relates to Coffea. Nature of the test: Inhibition of coffee beans alpha-galactosidase at 1000 uM.
The test system of test [16] is Helix pomatia. Nature of the test: Inhibition of snail beta-mannosidase at 1000 uM.
In test [17] the test system is Prunus dulcis. The test is described as follows: Inhibition of almond beta-glucosidase at 1000 uM.
Test [18] deals with T5, Alpha-glucosidase (Aspergillus niger, UniProt P56526).
T5 sequence (P56526 whole entry): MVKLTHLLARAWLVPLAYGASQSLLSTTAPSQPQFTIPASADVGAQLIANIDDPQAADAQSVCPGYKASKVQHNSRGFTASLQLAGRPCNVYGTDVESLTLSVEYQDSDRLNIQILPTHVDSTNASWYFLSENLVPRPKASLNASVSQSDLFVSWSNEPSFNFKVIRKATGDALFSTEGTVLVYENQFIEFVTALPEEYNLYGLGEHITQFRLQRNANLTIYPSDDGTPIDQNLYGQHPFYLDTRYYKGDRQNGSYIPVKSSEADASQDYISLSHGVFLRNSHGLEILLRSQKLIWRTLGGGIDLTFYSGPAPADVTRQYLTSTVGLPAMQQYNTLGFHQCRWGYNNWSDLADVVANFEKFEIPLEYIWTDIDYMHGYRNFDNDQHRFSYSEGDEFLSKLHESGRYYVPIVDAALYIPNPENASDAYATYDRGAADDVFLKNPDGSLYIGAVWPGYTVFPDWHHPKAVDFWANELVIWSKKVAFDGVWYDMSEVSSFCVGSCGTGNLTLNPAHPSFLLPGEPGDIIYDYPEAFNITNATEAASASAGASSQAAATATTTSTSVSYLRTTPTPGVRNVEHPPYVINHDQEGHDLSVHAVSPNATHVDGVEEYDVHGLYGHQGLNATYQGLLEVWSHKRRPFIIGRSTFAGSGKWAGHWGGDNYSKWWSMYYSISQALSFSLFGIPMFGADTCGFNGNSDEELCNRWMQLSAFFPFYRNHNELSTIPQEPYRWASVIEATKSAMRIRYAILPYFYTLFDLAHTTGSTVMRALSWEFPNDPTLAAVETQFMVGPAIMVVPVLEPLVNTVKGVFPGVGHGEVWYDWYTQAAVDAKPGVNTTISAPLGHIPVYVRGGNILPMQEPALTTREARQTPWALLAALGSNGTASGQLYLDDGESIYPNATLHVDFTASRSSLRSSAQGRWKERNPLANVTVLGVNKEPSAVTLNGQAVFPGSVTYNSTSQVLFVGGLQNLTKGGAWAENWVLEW
Nature of the test: Inhibition of Aspergillus niger alpha-glucosidase.

Test [19] deals with Aspergillus niger. The test is described as follows: Inhibition of Aspergillus niger amyloglucosidase at 1000 uM.
The nature of test [20]: Inhibition of rat beta-galactosidase.
Test [21] relates to Penicillium decumbens. The test is described as follows: Inhibition of Penicillium decumbens alpha-L-rhamnosidase at 1000 uM.
In test [22] the target is T6, Alpha-glucosidase (Aspergillus niger) (UniProt P56526).
T6 sequence (whole entry): T5 sequence (P56526 whole entry)
Nature of the test: Inhibition of Aspergillus niger alpha-glucosidase at 1000 uM.

Test [23] is described as follows: Inhibition of rat intestinal alpha-glucosidase.
Test [24] in a line: Inhibition of almond beta-glucosidase. Also noted: species or system Prunus dulcis.

As to `O[C@H]1[C@H](O)CN2CCCC[C@H]12` [(-)-LENTIGINOSINE], in test [1], the IC50 (usually the concentration at which inhibition is half-maximal) was 32 µM.

Turning to `O[C@H]1CCCN2C[C@H](O)[C@H]12`, the inhibition (usually the share of the control response that was lost under treatment) in [2] stood at 13.2%; in test [3], 32.2%; in test [6], 14%; in [7], 0%; in [8], 14.3%; in test [9] it was 9.7%. Besides, the inhibition in test [10] was determined as 1%; in test [11], 1.6%; in [12], 0%; in [13], 0%; in test [14] it was 0%; in test [15], 8.4%. Also, the inhibition in [16] and in test [17] was 0% each time. The IC50 in test [4] came out at 117 µM; in test [5] it was 243 µM; in test [1] it was 930 µM; in test [18] it was 307 µM.

`O[C@@H]1[C@H](O)[C@H]2[C@@H](O)CN2C[C@H]1O` [(3R,4S,5R,6R,7S)-3,4,5,7-TETRAHYDROXYCONIDINE]: the inhibition in test [2] was 0%; in [19], 31.3%; in test [6], 43.4%; in [7], 1.8%; in [8] it was 30.3%; in test [21] it was 2%. The inhibition turned out to be 18.9% in test [9]; 47.3% in test [22]; 9% in test [10]; 0% in [11]; 2% in [12]; 13.8% in [13]. The inhibition in test [14] was found to be 7.8%; in test [15], 3.5%; in test [16] it was 0%; in test [17] it was 31.1%. The concentration for half-maximal inhibition (IC50) was determined as 532 µM in test [5] and 418 µM in [20].

For the compound `O[C@@H]1[C@H](O)[C@H]2[C@@H](O)CCN2C[C@H]1O`, the IC50 in test [1] was determined as 8 µM. This lies in the single-digit micromolar range.

For `OC[C@H](O)[C@@H]1NC[C@@H]1O`, the inhibition in test [2] is 0%; in test [6], 25.2%; in [7], 0.4%; in test [10] it was 5.8%; in [11] it was 16%; in test [12], 4.6%. The inhibition amounted to 12.1% in test [13], 7.4% in test [14], 7.6% in [15] and 0% in test [16]. For the same compound, the concentration for half-maximal inhibition (IC50) in test [4] was determined as 634 µM; in test [23], 607 µM; in test [5] it was 19 µM; in test [20], 70 µM; in test [1], 105 µM; in [18], 39 µM. The IC50 in test [24] came to 347 µM.

On to `O[C@H]1[C@H](O)[C@@H](O)CN2CC[C@H](O)[C@H]12` [CASTANOSPERMINE], for which the IC50 in test [1] turned out to be 8 µM.

For the origin of these results see ChEMBL document CHEMBL2407027, “(3R,4S,5R,6R,7S)-3,4,5,7-Tetrahydroxyconidine, an azetidine analogue of 6,7-diepicastanospermine and a conformationally constrained d-deoxyaltronojirimycin, from l-arabinose” (Bioorg Med Chem, 2013).
